Reference: patent publication US20230357430A1, “RNF167 AND CASTOR1 AS NOVEL MTOR TARGETS” (UNIVERSITY OF PITTSBURGH - OF THE COMMONWEALTH SYSTEM OF …, priority 2020, published 2023)
“Also recorded” adds a separate entry of the source. One block for each molecule: values may come before it. Peptide text beside a SMILES is read from it. * marks the point of attachment. Cbz = O=C(OCc1ccccc1)*

How the values were obtained:
[1] = system: CASTOR1 protein level in 293T cells; assay: CASTOR1 protein level by immunoblotting after chemical treatment; type: cell-based, human; details: for Flag-CASTOR1 S14D protein level: 293T cells stably expressing Flag-CASTOR1 S14D; for Flag-CASTOR1 S14D protein level / Flag-CASTOR1 WT and S14A protein level: FIG. 10B-10D; for Flag-CASTOR1 WT and S14A protein level: 293T cells stably expressing Flag-CASTOR1 WT or S14A
Procedure: (§1) Cell culture and transfection: 293T cells obtained from ATCC (CRL-3216) were maintained in DMEM supplemented with 10% FBS. MCF7, T47D, HCC1569, and HCC202 cells were obtained from Dr. Xiaosong Wang at the University of Pittsburgh, and cultured in RPMI1640 with 10% FBS. MM cells were cultured in DMEM plus 10% FBS, while KMM cells were cultured in DMEM plus 10% FBS and 10 μg/ml hygromycin. HSAEC (FC-0016) and HLBEC (FC-0054) cells were purchased from Lifeline and cultured with the BronchiaLife™ Epithelial Airway Medium Complete Kit (Lifeline LL-0023). All cells were maintained at 37 C° in 5% CO2.
(§2) For amino acid deprivation and re-stimulation to assess mTORC1 activation, cells were incubated in EBSS medium (Thermo 24010043) for 50 min and then stimulated by adding arginine (Sigma A5131) at the indicated concentration. For ubiquitination assays, cells were deprived of FBS or arginine, or treated with 10 μM MK2206 (Selleckem S1078) overnight before immunoprecipitation and immunoblotting, or re-stimulated with FBS or arginine for 12 h before analysis.
For chemical treatments, CHX (CST 2112) or MG132 (Sigma M8699) dissolved in DMSO (VWR 97061-250) was diluted in medium to a specified concentration. Medium containing MG132 or CHX was then used to replace the original medium, and cells were cultured in the presence of MG132 for a specified time.
Immunoblotting analysis: To detect all proteins except CASTOR1, samples were separated with 4%-20% SDS-polyacrylamide gels (Genscript M00656 and M00657). To detect CASTOR1 protein, samples were resolved with 10% SDS-polyacrylamide gels (Genscript M00665 and M00666). Proteins resolved in gels were then transferred to nitrocellulose membranes (GE Healthcare 10600004), which were incubated with primary and secondary antibodies overnight and for 1 h at room temperature, respectively. The signals were developed using the Luminiata Crescendo Western HRP Substrate (EMD Millipore WBLUR0500) and SuperSignal West Femto Maximum Sensitivity Substrate (Thermo 34096) or fluorescence secondary antibodies. The images were recorded with a ChemiDoc MP Imaging System (Bio-Rad 17001402) at either Chemi, Dylight 500, DyLight 800, or StarBright B700 channels.

[2] = system: mTORC1; assay: mTORC1 activation status (pS6K, p4EBP1) by immunoblotting; type: cell-based, human; details: 293T cells, FIG. 1C
Procedure: as §1
For amino acid deprivation and re-stimulation to assess mTORC1 activation, cells were incubated in EBSS medium (Thermo 24010043) for 50 min and then stimulated by adding arginine (Sigma A5131) at the indicated concentration. […]
(§3) Immunoblotting analysis: To detect all proteins except CASTOR1, samples were separated with 4%-20% SDS-polyacrylamide gels (Genscript M00656 and M00657). […] The signals were developed using the Luminiata Crescendo Western HRP Substrate (EMD Millipore WBLUR0500) and SuperSignal West Femto Maximum Sensitivity Substrate (Thermo 34096) or fluorescence secondary antibodies. The images were recorded with a ChemiDoc MP Imaging System (Bio-Rad 17001402) at either Chemi, Dylight 500, DyLight 800, or StarBright B700 channels.

[3] = system: CASTOR1 mRNA; assay: CASTOR1 mRNA level by RT-qPCR; type: cell-based, human; details: 293T cells, FIG. 6K
From the text: Reverse transcription real-time quantitative polymerase-chain reaction (RT-qPCR): Total RNA was extracted by using TRI Reagent (Sigma T9424) based on the manufacturer's instructions. Total RNA was subjected to reverse transcription using the Maxima H Minus First Strand cDNA Synthesis Kit (Thermo K1652). SsoAdvanced™ Universal SYBR® Green Supermix Kit (Bio-Rad 172-5272) was applied for qPCR analysis. The relative mRNA levels were normalized to a house-keeping gene, which yielded 2^−ΔΔCt values. For qPCR reaction, each sample was run in triplicates with cycle threshold (Ct) values within 0.5 Ct differences among the triplicates. The primers used for gene expression were 5′[…]3′ (forward; SEQ ID NO: 22) and 5′[…]3′ (reverse; SEQ ID NO: 23) for human CASTOR1; and […] (forward; SEQ ID NO: 24) and […] (reverse; SEQ ID NO: 25) for human β-actin.

[4] = system: CASTOR1 phosphorylation at S14; assay: CASTOR1 phosphorylation at the AKT consensus motif (S14), immunoprecipitation and immunoblotting; type: cell-based, human; details: Flag-CASTOR1 in cells, FIG. 2C
Procedure: as §2
Immunoprecipitation. Cells were lysed in lysis buffer (50 mM Tris-HCl, with 150 mM NaCl, 1 mM EDTA, and 1% Triton X-100, pH 7.4) supplemented with a complete protease inhibitor cocktail (Thermo 78438) and phosphatase inhibitor (Thermo 78427), followed by centrifugation at 4° C. for 5 min. […]
as §3

[5] = biological target: T1, AKT1 (Homo sapiens, UniProt P31749); assay: In vitro kinase assay, GST-AKT1 phosphorylation of GST-CASTOR1; type: biochemical; details: in the presence of ATP, FIG. 2D
T1 construct: purchased Novus Biologicals 1775-KS (GST-AKT1); H00652968-P01 (GST-CASTOR1)
Procedure: In vitro kinase assay: Recombinant GST-AKT1 protein (Novus Biologicals, 1775-KS) was mixed with GST-CASTOR1 protein (Novus Biologicals, H00652968-P01) in a 30 μl reaction mixture at room temperature for 1 h. The reaction mixture contained protease inhibitors, 100 mM HEPES (pH 7.4), 150 mM NaCl, 50 mM MgCl2,1 mM DTT, 0.01% NaN3, 1 mM ATP, 0.2 μg GST-AKT1 and 1 μg GST-CASTOR1.

[6] = system: ER+ breast cancer cells; assay: Endogenous CASTOR1 protein level in ER+ breast cancer cells by immunoblotting; type: cell-based, human; details: FIG. 13D
Procedure: as §1
as §3, with “M00657). To detect CASTOR1 protein, samples were resolved with 10% SDS-polyacrylamide gels (Genscript M00665 and M00666).” for “M00657).”

[7] = biological target: human CASTOR1 wild type (Flag-CASTOR1 WT) (UniProt Q8WTX7)
[8] = biological target: T2, recombinant GST-CASTOR1 protein (Novus Biologicals, H00652968-P01) (UniProt Q8WTX7)
T2 sequence: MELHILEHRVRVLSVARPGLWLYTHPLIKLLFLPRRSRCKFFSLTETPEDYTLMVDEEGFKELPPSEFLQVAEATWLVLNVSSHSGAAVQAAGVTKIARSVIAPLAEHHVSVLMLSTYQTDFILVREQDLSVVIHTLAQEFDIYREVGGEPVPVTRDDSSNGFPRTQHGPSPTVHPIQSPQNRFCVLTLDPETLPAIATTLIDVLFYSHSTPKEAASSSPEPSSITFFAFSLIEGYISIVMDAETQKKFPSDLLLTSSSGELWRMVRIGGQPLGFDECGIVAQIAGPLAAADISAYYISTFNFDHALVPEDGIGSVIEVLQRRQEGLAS

[9] = biological target: the molecule itself; assay: dimerization assay, method not described (FIG. 33)

T1 sequence (P31749 whole entry): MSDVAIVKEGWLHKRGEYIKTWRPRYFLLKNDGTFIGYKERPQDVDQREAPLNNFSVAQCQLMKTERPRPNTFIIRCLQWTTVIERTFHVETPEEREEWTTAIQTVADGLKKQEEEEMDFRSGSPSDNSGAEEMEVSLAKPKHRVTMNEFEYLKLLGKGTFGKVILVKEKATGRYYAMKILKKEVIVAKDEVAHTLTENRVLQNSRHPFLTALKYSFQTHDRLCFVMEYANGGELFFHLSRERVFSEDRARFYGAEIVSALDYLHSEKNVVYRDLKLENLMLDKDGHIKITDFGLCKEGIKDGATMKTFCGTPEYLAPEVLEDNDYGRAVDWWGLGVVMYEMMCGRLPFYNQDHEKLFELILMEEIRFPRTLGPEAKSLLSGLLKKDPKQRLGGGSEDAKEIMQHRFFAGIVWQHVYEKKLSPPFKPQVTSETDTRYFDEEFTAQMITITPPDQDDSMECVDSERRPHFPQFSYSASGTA

Molecule: C[C@@H]1C[C@@H]([C@H](O)CC2CC(=O)NC(=O)C2)C(=O)[C@@H](C)C1 [CHX, cycloheximide]
Flag-CASTOR1 S14D protein level [1]: reduced
Flag-CASTOR1 WT and S14A protein level [1]: minimal effects on WT and S14A

Molecule: CC(C)C[C@@H](C=O)NC(=O)[C@H](CC(C)C)NC(=O)[C@H](CC(C)C)NC(=O)OCc1ccccc1 [MG132] (Cbz-Leu-Leu-Leu-aldehyde)
accumulation of CASTOR1 protein ([1]; 293T cells co-transfected with Flag-CASTOR1 and myr-HA-AKT1, FIG. 9H): increased the accumulation of CASTOR1 protein
Flag-CASTOR1 S14D protein level [1]: increased S14D protein level
Flag-CASTOR1 WT and S14A protein level [1]: minimal effects on WT and S14A
RNF167-mediated downregulation of CASTOR1 protein ([1]; RNF167 overexpression, FIG. 7H): partially rescues
accumulation of CASTOR1 protein ([1]; cells expressing Flag-CASTOR1 and the vector control, FIG. 9H): only had a marginal effect

phosphorylation of purified GST-CASTOR1 by purified GST-AKT1 [5]: abolished
Molecule: NC1(c2ccc(-c3nc4ccn5c(=O)[nH]nc5c4cc3-c3ccccc3)cc2)CCC1 [MK2206]
CASTOR1 protein level ([1]; 293T cells, FIG. 1C): upregulated CASTOR1 protein
mTORC1 activation [2]: decreased mTORC1 activation
CASTOR1 mRNA level [3]: but not mRNA level
specific phosphorylation of the AKT motif of CASTOR1 (S14) [4]: significantly reduced the specific phosphorylation of the AKT motif
endogenous CASTOR1 protein level [6]: enhanced; also recorded: increases the endogenous CASTOR1 protein level

Molecule: RING finger protein 167 (RNF167)
CASTOR1 ubiquitination [7]: only RNF167 increased CASTOR1 ubiquitination

Molecule: recombinant GST-AKT1 protein (Novus Biologicals, 1775-KS)
in vitro kinase assay: phosphorylation of GST-CASTOR1 [8]: efficiently phosphorylated purified GST-tagged CASTOR1 (GST-CASTOR1) recombinant protein only in the presence of ATP, which was abolished by AKT inhibitor MK2206

B1: human CASTOR1 wild type (Flag-CASTOR1 WT) (other, UniProt Q8WTX7 1-329, looked up)
chain: T2 sequence
notes: Expressed in cells and pulled down from lysates; also called HA-CASTOR1; cytosolic arginine sensor for mTORC1 subunit 1; not shown: N-terminal Flag tag
binding result [9]: binds
